Experimental data from patent publication US8148391B2 (Cephalon, Inc., priority 2006, dated 2012).
Like-named read-outs stand apart in the source and are kept apart here.

Tests used:
[1] = biological target: T1, c-Met (cytoplasmic domain) (Homo sapiens, UniProt P08581); assay: c-Met Kinase Assay (same methods as for ALK, with modifications); type: biochemical
T1 construct: 10 ng/mL c-Met (cytoplasmic domain, Invitrogen Corporation #PV3143); purchased Invitrogen Corporation PV3143
Summary of the method: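 IC50 values were fitted by variable-slope sigmoidal regression of percent inhibition against log compound concentration. Phosphorylation was read with Eu-N1 PT66 antibody after a 15 min, 37 °C reaction. The reaction was initiated with 10 ng/mL c-Met cytoplasmic domain on wells coated with 10 μg/mL PLC-γ in TBS.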

[2] = biological target: T2, baculovirus-expressed ALK (Homo sapiens, UniProt Q9UM73); assay: ALK Kinase Assay (ELISA-type, time-resolved fluorescence); type: biochemical
T2 construct: host or cells: baculovirus expression system
T2 sequence (Q9UM73 19-1620): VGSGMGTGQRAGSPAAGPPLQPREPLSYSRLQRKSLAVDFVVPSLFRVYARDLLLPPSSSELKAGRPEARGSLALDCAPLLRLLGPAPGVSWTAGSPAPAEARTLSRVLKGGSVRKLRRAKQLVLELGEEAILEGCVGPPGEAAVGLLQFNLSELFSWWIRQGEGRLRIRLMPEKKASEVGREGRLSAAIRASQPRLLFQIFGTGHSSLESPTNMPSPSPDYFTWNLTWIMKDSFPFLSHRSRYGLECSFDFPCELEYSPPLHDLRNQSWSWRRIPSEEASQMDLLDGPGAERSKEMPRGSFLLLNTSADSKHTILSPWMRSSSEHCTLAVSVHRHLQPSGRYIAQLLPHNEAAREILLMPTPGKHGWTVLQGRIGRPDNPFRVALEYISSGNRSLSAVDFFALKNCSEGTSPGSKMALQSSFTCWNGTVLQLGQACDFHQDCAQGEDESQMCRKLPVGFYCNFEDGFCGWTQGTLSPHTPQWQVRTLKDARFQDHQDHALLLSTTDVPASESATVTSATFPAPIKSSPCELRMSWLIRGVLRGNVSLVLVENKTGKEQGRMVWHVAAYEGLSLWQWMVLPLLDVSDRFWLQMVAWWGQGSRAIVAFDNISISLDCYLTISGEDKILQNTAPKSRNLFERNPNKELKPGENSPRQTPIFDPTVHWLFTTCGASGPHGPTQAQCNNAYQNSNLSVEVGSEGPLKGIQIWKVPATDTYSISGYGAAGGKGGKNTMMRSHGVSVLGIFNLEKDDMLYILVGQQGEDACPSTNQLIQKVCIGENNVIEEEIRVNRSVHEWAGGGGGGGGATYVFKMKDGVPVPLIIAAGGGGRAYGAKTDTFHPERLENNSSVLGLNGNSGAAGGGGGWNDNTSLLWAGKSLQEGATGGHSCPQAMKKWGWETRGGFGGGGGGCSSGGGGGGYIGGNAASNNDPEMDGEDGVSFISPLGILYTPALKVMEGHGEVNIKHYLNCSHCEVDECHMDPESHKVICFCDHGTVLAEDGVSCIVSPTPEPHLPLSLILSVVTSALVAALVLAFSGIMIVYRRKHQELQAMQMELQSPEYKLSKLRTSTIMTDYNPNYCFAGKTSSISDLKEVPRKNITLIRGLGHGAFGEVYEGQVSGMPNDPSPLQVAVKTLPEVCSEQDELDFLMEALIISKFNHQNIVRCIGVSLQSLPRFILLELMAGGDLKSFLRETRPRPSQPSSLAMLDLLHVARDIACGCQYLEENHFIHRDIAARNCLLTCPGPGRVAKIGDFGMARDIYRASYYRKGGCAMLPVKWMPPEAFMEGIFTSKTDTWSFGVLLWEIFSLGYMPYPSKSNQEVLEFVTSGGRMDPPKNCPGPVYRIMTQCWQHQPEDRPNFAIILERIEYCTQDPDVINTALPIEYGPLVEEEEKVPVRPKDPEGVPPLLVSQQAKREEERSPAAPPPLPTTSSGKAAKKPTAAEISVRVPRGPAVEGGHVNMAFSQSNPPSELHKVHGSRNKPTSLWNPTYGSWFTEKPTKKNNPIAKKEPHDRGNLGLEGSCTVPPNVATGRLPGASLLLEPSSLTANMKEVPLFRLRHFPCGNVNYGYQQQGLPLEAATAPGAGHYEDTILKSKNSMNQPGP
Summary of the method: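 Wells were coated with phospholipase C-γ at 10 μg/mL in Tris-buffered saline. Adding 30 ng/ml enzyme started the reaction, which ran at 37° C for 15 minutes before Eu-N1 PT66 antibody detection. Percent inhibition versus log10 concentration gave IC50 by variable-slope fit.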

[3] = c-Met kinase inhibition, 1 μM ATP, read-out: cMet Activity
[4] = ALK kinase inhibition, 1 μM ATP, read-out: ALK Activity
[5] = c-Met kinase inhibition, 1 μM ATP (Km level), read-out: cMet Activity
[6] = ALK kinase inhibition, 1 μM ATP (Km level), read-out: ALK Activity
[7] = 1 μM ATP (Km level), read-out: cMet Activity (c-Met Kinase Inhibition, IC50)
[8] = 1 μM ATP (Km level), read-out: ALK Activity (ALK Kinase Inhibition, IC50)
[9] = 1 μM ATP (Km level), 10 ng/mL c-Met, read-out: cMet Activity (c-Met kinase inhibition, IC50 class)
[10] = 1 μM ATP (Km level), 30 ng/ml ALK, 37° C., 15 minutes, read-out: ALK Activity (ALK kinase inhibition, IC50 class)

T1 sequence (P08581 956-1390 limits assumed): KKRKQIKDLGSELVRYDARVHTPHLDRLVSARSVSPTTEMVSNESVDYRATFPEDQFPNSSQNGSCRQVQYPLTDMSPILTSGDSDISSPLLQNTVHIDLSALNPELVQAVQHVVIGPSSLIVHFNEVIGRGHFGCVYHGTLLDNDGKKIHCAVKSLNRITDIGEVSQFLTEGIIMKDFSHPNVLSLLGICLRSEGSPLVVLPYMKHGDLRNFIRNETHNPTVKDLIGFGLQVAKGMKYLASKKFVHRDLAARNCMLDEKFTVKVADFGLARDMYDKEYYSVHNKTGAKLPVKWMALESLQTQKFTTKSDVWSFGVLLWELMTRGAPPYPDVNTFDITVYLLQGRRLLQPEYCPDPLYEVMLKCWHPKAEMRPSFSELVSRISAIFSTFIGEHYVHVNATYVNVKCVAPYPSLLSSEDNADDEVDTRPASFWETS

Question: `CNC(=O)c1noc(C)c1Nc1nc(Nc2ccc3c(c2)CCOC(=O)N3C)ncc1Cl` [Example 1775, 4-[5-Chloro-2-(5-methyl-6-oxo-5,6,8,9-tetrahydro-7-oxa-5-aza-benzocyclohepten-2-ylamino)-pyrimidin-4-ylamino]-5-methyl-isoxazole-3-carboxylic acid methyl amide] was tested. Which IC50 [1, 3] did it give?
Answer: 1000 to 10000 nM

Question: What about the IC50 [2, 4] of the same compound?
Answer: > 10000 nM

Question: What does the source list for `C#CCN1C2CCC1c1cc(Nc3ncc(Cl)c(Nc4ccccc4C(=O)NC)n3)ccc1C2` (stereo not shown) [Example 69, 2-[5-Chloro-2-(12-prop-2-ynyl-12-aza-tricyclo[7.2.1.0*2,7*]dodeca-2(7),3,5-trien-4-ylamino)-pyrimidin-4-ylamino]-N-methyl-benzamide]?
Answer: IC50 [1, 5]: < 100 nM; IC50 [2, 6]: < 100 nM

Question: `CN1C(=O)OCCc2cc(Nc3ncc(Cl)c(Nc4ccccc4-c4cc[nH]n4)n3)ccc21` [Example 1767, 2-{5-Chloro-4-[2-(1H-pyrazol-3-yl)-phenylamino]-pyrimidin-2-ylamino}-5-methyl-8,9-dihydro-5H-7-oxa-5-aza-benzocyclohepten-6-one] was tested. Which IC50 [1, 3] did it give?
Answer: 1000 to 10000 nM

Question: And the IC50 [2, 4]?
Answer: > 10000 nM

Question: What does the source list for `COc1c(Nc2ncc(Cl)c(Nc3ccccc3S(=O)(=O)C(C)C)n2)ccc2c1CCCC(NCCO)C2` (stereo not shown) [Example 961, 2-(2-{5-Chloro-4-[2-(propane-2-sulfonyl)-phenylamino]-pyrimidin-2-ylamino}-1-methoxy-6,7,8,9-tetrahydro-5H-benzocyclohepten-6-ylamino)-ethanol]?
Answer: IC50 [1, 7]: > 10000 nM; IC50 [2, 8]: < 100 nM

Question: How did the IC50 [1, 5] turn out when `CNC(=O)c1ccccc1Nc1nc(Nc2ccc3c(c2OC)CCCC(=O)N3CCOC)ncc1Cl` [Example 126, 2-{5-Chloro-2-[6-methoxy-1-(2-methoxy-ethyl)-2-oxo-2,3,4,5-tetrahydro-1H-benzo[b]azepin-7-ylamino]-pyrimidin-4-ylamino}-N-methyl-benzamide] was run?
Answer: 1000 to 10000 nM

Question: And the IC50 [2, 6]?
Answer: < 100 nM

Question: Which results are given for `Cn1cnc2c(Nc3nc(Nc4ccc5c(c4)C(C)(C)CCC(=O)N5)ncc3Cl)cccc21` [Example 1005, 7-[5-Chloro-4-(1-methyl-1H-benzoimidazol-4-ylamino)-pyrimidin-2-ylamino]-5,5-dimethyl-1,3,4,5-tetrahydro-benzo[b]azepin-2-one]?
Answer: IC50 [1, 7]: 100 to 1000 nM; IC50 [2, 8]: < 100 nM

Question: Which results are given for `COc1cc2c(cc1Nc1ncc(Cl)c(Nc3cc(C#N)ccc3OC)n1)CCN(CC(N)=O)CC2` [Example 1154, 2-{7-[5-Chloro-4-(5-cyano-2-methoxy-phenylamino)-pyrimidin-2-ylamino]-8-methoxy-1,2,4,5-tetrahydro-benzo[d]azepin-3-yl}-acetamide]?
Answer: IC50 [1, 9]: > 10000 nM; IC50 [2, 10]: < 100 nM

Question: Which IC50 [1, 5] does the source give for `CNC(=O)c1ccccc1Nc1nc(Nc2ccc3c(c2)N(C)CCN(CCOC)C3)ncc1Cl` [Example 484, 2-{5-Chloro-2-[4-(2-methoxy-ethyl)-1-methyl-2,3,4,5-tetrahydro-1H-benzo[e][1,4]diazepin-8-ylamino]-pyrimidin-4-ylamino}-N-methyl-benzamide] here?
Answer: < 100 nM

Question: What about the IC50 [2, 6] of the same compound?
Answer: < 100 nM

Question: What does the source list for `COc1cc2c(cc1Nc1ncc(Cl)c(Nc3ccc(Cl)cc3S(=O)(=O)N(C)C)n1)CCN(CCO)CC2` [Example 840, 5-Chloro-2-{5-chloro-2-[3-(2-hydroxy-ethyl)-8-methoxy-2,3,4,5-tetrahydro-1H-benzo[d]azepin-7-ylamino]-pyrimidin-4-ylamino}-N,N-dimethyl-benzenesulfonamide]?
Answer: IC50 [1, 7]: > 10000 nM; IC50 [2, 8]: < 100 nM

Question: With `COc1cc2c(cc1Nc1ncc(Cl)c(N[C@@H]3CCCC[C@H]3NS(C)(=O)=O)n1)CCN(C[C@H](O)C(F)(F)F)CC2` [Example 461, N-((1R,2R)-2-{5-Chloro-2-[8-methoxy-3-((S)-3,3,3-trifluoro-2-hydroxy-propyl)-2,3,4,5-tetrahydro-1H-benzo[d]azepin-7-ylamino]-pyrimidin-4-ylamino}-cyclohexyl)-methanesulfonamide] as the compound, how does the IC50 [1, 5] read?
Answer: > 10000 nM

Question: What about the IC50 [2, 6] of the same compound?
Answer: < 100 nM

Question: Which results are given for `COc1c(Nc2ncc(Cl)c(Nc3ccccc3S(=O)(=O)N(C)C)n2)ccc2c1CCC(N1CCOCC1)CC2` (stereo not shown) [Example 889, 2-[5-Chloro-2-(1-methoxy-7-morpholin-4-yl-6,7,8,9-tetrahydro-5H-benzocyclohepten-2-ylamino)-pyrimidin-4-ylamino]-N,N-dimethyl-benzenesulfonamide]?
Answer: IC50 [1, 7]: 1000 to 10000 nM; IC50 [2, 8]: < 100 nM

Question: Which IC50 [1, 9] does the source give for `CNC(=O)c1cccc(F)c1Nc1nc(Nc2ccc3c(c2)CNC(=O)CCN3C(C)=O)ncc1Cl` [Example 1224, 2-[2-(1-Acetyl-4-oxo-1,2,3,4,5,6-hexahydro-benzo[b][1,5]diazocin-8-ylamino)-5-chloro-pyrimidin-4-ylamino]-3-fluoro-N-methyl-benzamide] here?
Answer: < 100 nM

Question: What about the IC50 [2, 10] of the same compound?
Answer: < 100 nM

Question: How did the IC50 [1, 7] turn out when `COc1c(Nc2ncc(Cl)c(N[C@H]3[C@@H](C(N)=O)[C@@H]4C=C[C@H]3C4)n2)ccc2c1CCC(=O)CC2` [Example 869, (1S,2S,3R,4R)-3-[5-Chloro-2-(1-methoxy-7-oxo-6,7,8,9-tetrahydro-5H-benzocyclohepten-2-ylamino)-pyrimidin-4-ylamino]-bicyclo[2.2.1]hept-5-ene-2-carboxylic acid amide] was run?
Answer: > 10000 nM

Question: And the IC50 [2, 8]?
Answer: < 100 nM

Question: For `CC1(C)CCCOc2c(Nc3ncc(Cl)c(N[C@@H]4CCCC[C@H]4NS(C)(=O)=O)n3)cccc21` [Example 875, N-{(1R,2R)-2-[5-Chloro-2-(5,5-dimethyl-2,3,4,5-tetrahydro-benzo[b]oxepin-9-ylamino)-pyrimidin-4-ylamino]-cyclohexyl}-methanesulfonamide], which IC50 [1, 7] is on record?
Answer: > 10000 nM

Question: And the IC50 [2, 8]?
Answer: < 100 nM

Question: Which IC50 [1, 7] does the source give for `COc1ccc(Nc2nc(Nc3ccc4c(c3)CCC(O)CC4)ncc2Cl)c(-n2cccn2)c1` (stereo not shown) [Example 623, 2-[5-Chloro-4-(4-methoxy-2-pyrazol-1-yl-phenylamino)-pyrimidin-2-ylamino]-6,7,8,9-tetrahydro-5H-benzocyclohepten-7-ol] here?
Answer: 1000 to 10000 nM

Question: And the IC50 [2, 8]?
Answer: < 100 nM

Question: Which IC50 [1, 5] does the source give for `COCCN1CCN(C)c2cc(Nc3ncc(Cl)c(NC4C5CCC(C5)C4C(N)=O)n3)c(OC)cc2C1` (stereo not drawn) [Example 491, (2-exo,3-exo)-3-{5-Chloro-2-[7-methoxy-4-(2-methoxy-ethyl)-1-methyl-2,3,4,5-tetrahydro-1H-benzo[e][1,4]diazepin-8-ylamino]-pyrimidin-4-ylamino}-bicyclo[2.2.1]heptane-2-carboxylic acid amide] here?
Answer: > 10000 nM

Question: And the IC50 [2, 6]?
Answer: < 100 nM

Question: How did the IC50 [1, 5] turn out when `CS(=O)(=O)N[C@@H]1CCCC[C@H]1Nc1nc(Nc2ccc3c(c2)C2CCC3CNC2)ncc1Cl` (stereo partly drawn) [Example 293, N-{(1R,2R)-2-[2-(10-Aza-tricyclo[6.3.2.0*2,7*]trideca-2,4,6-trien-4-ylamino)-5-chloro-pyrimidin-4-ylamino]-cyclohexyl}-methanesulfonamide] was run?
Answer: 1000 to 10000 nM

Question: What about the IC50 [2, 6] of the same compound?
Answer: < 100 nM

Question: Which results are given for `C#CCNC(=O)c1cc(F)cc(F)c1Nc1nc(Nc2ccc3c(c2)NC(=O)CCC3)ncc1Cl` [Example 1729, 2-[5-Chloro-2-(2-oxo-2,3,4,5-tetrahydro-1H-benzo[b]azepin-8-ylamino)-pyrimidin-4-ylamino]-3,5-difluoro-N-prop-2-ynyl-benzamide]?
Answer: IC50 [1, 3]: 100 to 1000 nM; IC50 [2, 4]: 1000 to 10000 nM

Question: `COc1cc2c(cc1Nc1ncc(Cl)c(Nc3ccccc3S(C)(=O)=O)n1)CCN(CCS(C)(=O)=O)CC2` [Example 1148, 5-Chloro-N*2*-[3-(2-methanesulfonyl-ethyl)-8-methoxy-2,3,4,5-tetrahydro-1H-benzo[d]azepin-7-yl]-N*4*-(2-methanesulfonyl-phenyl)-pyrimidine-2,4-diamine] was tested. Which IC50 [1, 9] did it give?
Answer: 1000 to 10000 nM

Question: And the IC50 [2, 10]?
Answer: < 100 nM

Question: What does the source list for `Cc1cnc(-c2sccc2Nc2nc(Nc3ccc4c(c3)CCOC(=O)N4C)ncc2Cl)o1` [Example 1790, 2-{5-Chloro-4-[2-(5-methyl-oxazol-2-yl)-thiophen-3-ylamino]-pyrimidin-2-ylamino}-5-methyl-8,9-dihydro-5H-7-oxa-5-aza-benzocyclohepten-6-one]?
Answer: IC50 [1, 3]: 100 to 1000 nM; IC50 [2, 4]: 100 to 1000 nM

Question: How did the IC50 [1, 9] turn out when `COCCN1CCc2ccc(Nc3ncc(Cl)c(Nc4c(F)cccc4OC4CCOC4)n3)cc2CC1` (stereo not shown) [Example 1274, 5-Chloro-N(4)-[2-fluoro-6-(tetrahydro-furan-3-yloxy)-phenyl]-N(2)-[3-(2-methoxy-ethyl)-2,3,4,5-tetrahydro-1H-3-benzazepin-7-yl]-pyrimidine-2,4-diamine] was run?
Answer: 100 to 1000 nM

Question: And the IC50 [2, 10]?
Answer: 100 to 1000 nM

Question: How did the IC50 [1, 3] turn out when `C#CCNC(=O)c1cccc(F)c1Nc1nc(Nc2ccc3c(c2)N(C(=O)CN(C)C)CCCC3(C)C)ncc1Cl` [Example 1631, 2-{5-Chloro-2-[1-(2-dimethylamino-acetyl)-5,5-dimethyl-2,3,4,5-tetrahydro-1H-benzo[b]azepin-8-ylamino]-pyrimidin-4-ylamino}-3-fluoro-N-prop-2-ynyl-benzamide] was run?
Answer: 100 to 1000 nM

Question: What about the IC50 [2, 4] of the same compound?
Answer: 100 to 1000 nM

Question: With `CC1(C)CCC(=O)Nc2cc(Nc3ncc(Cl)c(Nc4ccccc4S(=O)(=O)N4CCC(O)C4)n3)ccc21` (stereo not shown) [Example 1621, 8-{5-Chloro-4-[2-(3-hydroxy-pyrrolidine-1-sulfonyl)-phenylamino]-pyrimidin-2-ylamino}-5,5-dimethyl-1,3,4,5-tetrahydro-benzo[b]azepin-2-one] as the compound, how does the IC50 [1, 3] read?
Answer: < 100 nM

Question: What about the IC50 [2, 4] of the same compound?
Answer: < 100 nM
